Paper PMC8406801, “Naringenin Inhibits Platelet Activation and Arterial Thrombosis Through Inhibition of Phosphoinositide 3-Kinase and Cyclic Nucleotide Signaling” (Frontiers in Pharmacology, 2021)
Several values for one entry are separate records, joined by “and”; a condition that tells them apart may be missing. Equal entries are not always repeated.

Columns and labels:
tail bleeding = details: mouse, in vivo, po, 11.375 mg/kg
Procedure: Sixty minutes after the last administration, mice were anaesthetized with 1% pentobarbital sodium salt and placed on a 37°C heating pad. The tail was transected at a site 3 mm proximal to the tip and immediately immersed into saline kept at 37°C. The time to bleeding cessation (defined as no bleeding for 30 s) was measured. When the bleeding time lasted longer than 10 min, the bleeding was stopped, and the bleeding time was recorded as 10 min.

[1] = tested on: carotid arterial thrombus; assay: FeCl3-induced carotid arterial thrombus model in rats; format: in vivo, rat; details: oral 7.875 mg/kg for 7 days
Procedure: To determine the effects of naringenin on thrombogenesis, a FeCl3-induced carotid arterial thrombus model was performed as reported previously with some modifications ([Eckly et al., 2011]). […] The rats were anaesthetized using 1% pentobarbital sodium salt and fixed supinely after the last administration. The left carotid artery was exposed and thrombosis was induced by applying a Whatman filter paper (5 mm × 1 mm) saturated with 10% (w/v) FeCl3 on the top of the left carotid artery for 5 min. […] Time to occlusion of the carotid artery was defined as a blood flow of 0 ml/min for 3 min. […] At the end of the experiment, the left carotid artery was dissected. A haematoxylin and eosin stain was performed on the artery.

[2] = tested on: Akt Thr308 phosphorylation; assay: Ex vivo immunoblotting of phospho-Akt (Thr308) in ADP-stimulated PRP of treated rats; parameters: species or system rat; details: clopidogrel group, ex vivo; Figure 8D
Procedure: (§1) Male SD rats were randomly divided into 5 groups with 6 rats in each group. […] Sixty minutes after the last sample treatment, blood was drawn from the abdominal aorta of rats into the siliconized vacutainers containing 1:9 (v/v) 3.8% sodium citrate. The collected blood was centrifuged at 100 × g for 10 min at room temperature to obtain PRP. […] The platelet counts of PRP were adjusted to 4×10^8 cells/mL using PPP. PRP was incubated for 5 min at 37°C and then stimulated by ADP (5 μM). The maximum platelet aggregation rate was determined as mentioned above.
(§2) For in vitro platelet aggregation, aliquots of washed platelets were preincubated with vehicle or various concentrations of naringenin for 5 min and stimulated with ADP (10 μmol/L) under stirring at 37°C for 5 min. For ex vivo platelet aggregation, PRP was incubated at 37°C for 5 min and stimulated with ADP (5 μmol/L) under stirring at 37 °C. The platelet aggregation was terminated by adding ethylenediaminetetraacetic acid (EDTA; 10 mM). Total protein was prepared using RIPA lysis buffer and protein content was determined by bicinchoninic acid (BCA) protein assay kit. Equal amounts of platelet proteins (30 μg) were separated on 10% SDS polyacrylamide gel electrophoresis (SDS-PAGE) and then transferred to poly vinylidene difluoride (PVDF) membranes and subjected to western blot. Blots were blocked with TBS-Tween 20 containing 5% BSA and probed with primary antibodies diluted in blocking solution at 4°C overnight followed by incubation with the corresponding HRP secondary antibodies. The protein bands were visualized using enhanced chemiluminescence (ECL).
(§3) Blood was collected and PRP was obtained after the last treatment. Platelet aggregation was induced by ADP (5 μmol/L) (A). Data are expressed as means ± SD (n = 6). After ADP stimulation, platelet proteins were then extracted and analyzed by immunoblotting using PI3Kp110β antibody (B) and phospho-specific antibodies such as Akt^Ser473 (C), Akt^Thr308 (D) and ERK1/2^Thr202/Tyr204 (E). Total level of GAPDH was measured on each sample as a loading control. The blots shown are representative of three separate experiments. The relative protein expression levels were quantified by ImageJ 1.47v software. The level of relative protein expression obtained with vehicle control was taken as 1. R represents the level of relative protein expression in resting platelets. Data are expressed as means ± SD (n = 3). *p < 0.05, **p < 0.01, ***p < 0.001 compared with the vehicle control group (Con).
(§4) To further investigate the antiplatelet mechanisms of naringenin ex vivo, several signaling molecules such as PI3Kp110β, Akt and ERK were detected. After oral administration of naringenin (200, 400, and 800 mg/kg) to rats for 7 days, rat PRP was prepared and stimulated by ADP (5 μmol/L), and platelets were lysed to determine protein phosphorylation levels using western blot.

PI3Kp110β = assay: Ex vivo immunoblotting of PI3Kp110β in ADP-stimulated PRP of treated rats; parameters: species or system rat; details: clopidogrel group, ex vivo; Figure 8B
Procedure: as §1, §2, §3, §4

[3] = tested on: Akt Ser473 phosphorylation; assay: Ex vivo immunoblotting of phospho-Akt (Ser473) in ADP-stimulated PRP of treated rats; parameters: species or system rat; details: clopidogrel group, ex vivo; Figure 8C
Procedure: as §1, §2, §3, §4

washed rat platelets = assay: ADP (10 μM)-induced aggregation of washed rat platelets; format: cell-based; details: Figure 5A: washed platelets, ADP 10 μM, LY294002 5 μM alone; single replicates
[4] = tested on: Akt Ser473 phosphorylation; assay: Immunoblotting of phospho-Akt (Ser473) in ADP-stimulated washed platelets; format: cell-based, rat; details: Figure 5B: ADP 10 μM, LY294002 5 μM alone, single replicates
Procedure: as §2
FIGURE 4 Naringenin inhibits PI3K-mediated signaling in ADP-induced platelets. Washed rat platelets were preincubated without or with naringenin at 37°C for 5 min, and then stimulated with ADP (10 μmol/L) under stirring for 5 min. Platelet proteins were then extracted and analyzed by immunoblotting using PI3Kp110β antibody (A) and phospho-specific antibodies such as Akt^Ser473 (B), Akt^Thr308 (C), ERK1/2^Thr202/Tyr204 (D) and GSK3β^Ser9 (E). Total level of GAPDH was measured on each sample as a loading control. The blots shown are representative of three separate experiments. The relative protein expression levels were quantified by ImageJ 1.47v software. The level of relative protein expression obtained with vehicle control (0 μM) was taken as 1. R represents the level of relative protein expression in resting platelets. Data are expressed as means ± SD (n = 3). *p < 0.05, **p < 0.01, ***p < 0.001 compared with the vehicle control group.
FIGURE 5 Effects of naringenin combined with PI3K pan inhibitor LY294002 on platelet aggregation and Akt phosphorylation. Washed rat platelets were preincubated with naringenin (200 μmol/L) alone, the PI3K pan inhibitor LY294002 (5 μmol/L) alone or both for 5 min prior to ADP (10 μmol/L) activation. After stimulation with ADP, platelet aggregation was quantified and expressed as a percentage (A). Data are expressed as means ± SD (n = 6). ***p < 0.001 compared with the ADP-treated group, ^### p < 0.001 compared with naringenin alone or LY294002 alone. Platelet proteins were then extracted and specific antibodies were used to measure the level of total and phosphorylated Akt (B). The blots shown are representative of three separate experiments. The relative protein expression levels were quantified by ImageJ 1.47v software. The level of phosphorylation obtained in the ADP-treated group was taken as 1. Data are expressed as means ± SD (n = 3). ***p < 0.001 compared with the ADP-treated group, ^### p < 0.001 compared with naringenin alone or LY294002 alone.

SMILES	effect on tail bleeding time (tail bleeding)	vessel occlusion time of rats [1]	Occlusion time ([1]; 10% FeCl3, single animals, no occlusion within 20 min recorded as 20 min, 7.875 mg/kg)	p-Akt Thr308 / t-Akt (Fold to Control) [2]	p-Akt Thr308 / t-Akt (raw data) [2]	PI3Kp110β / GAPDH (Fold to Control) (PI3Kp110β)	PI3Kp110β / GAPDH (raw data) (PI3Kp110β)	p-Akt Ser473 / t-Akt (Fold to Control) [3]	p-Akt Ser473 / t-Akt (raw data) [3]	Aggregation (%) (washed rat platelets)	p-Akt Ser473 / t-Akt ([4]; raw data)	p-Akt Ser473 / t-Akt (Fold to ADP only) [4]
COC(=O)[C@H](c1ccccc1Cl)N1CCc2sccc2C1 [Clopidogrel, clopidogrel, reference compound]	markedly extended	considerably delayed	18.3 min and 20.0 min	0.3303 and 0.3457 and 0.2827	0.2780 and 0.2909 and 0.2379	0.8304 and 0.8095 and 1.1247	0.4069 and 0.3966 and 0.5511	0.1574 and 0.1140 and 0.1683	0.1750 and 0.1267 and 0.1870	–	–	–
O=c1cc(N2CCOCC2)oc2c(-c3ccccc3)cccc12 [LY294002, reference compound]	–	–	–	–	–	–	–	–	–	47.5% and 35.4% and 37.3% and 29.8% and 45.4% and 28.0%	0.3729 and 0.2624 and 0.3579	0.4284 Fold to ADP only and 0.3015 Fold to ADP only and 0.4113 Fold to ADP only
